Patent US20220401411A1, “ZAFIRLUKAST DERIVATIVES FOR USE AS CONTRACEPTIVE AGENTS” (Rigshospitalet, priority 2019, published 2022)
pIC50: −log10 of the molar value.

Target: T1, human CatSper (Homo sapiens, UniProt Q7RTX7+Q86XQ3+Q8NEC5+Q96P56)
T1 construct: isolated motile sperm cells from freshly ejaculated semen samples of healthy human donors; endogenous in cells; host or cells: motile human sperm cells from ejaculates of healthy donors (swim-up)
Test: Inhibition of CatSper activation in human sperm cells, Ca2+-fluorophore plate reader assay
Format: cell-based
Details: for Inhibition of activation of human CatSper by progesterone / Inhibition of activation of human CatSper by intracellular alkalization via NH4Cl: low μM doses, human sperm cells, [Ca2+]i fluorescence; for Inhibition of activation of human CatSper by progesterone: 500 nM progesterone; for Inhibition of activation of human CatSper by intracellular alkalization via NH4Cl: 3 mM NH4Cl; for pIC50: motile human sperm cells (swim-up), Ca2+-fluorophore, CatSper activated by 500 nM progesterone, dose inhibition curve, read-out: IC50, inhibition of progesterone-induced signals through CatSper
Excerpt: (§1) Isolated live and motile human sperm cells were loaded with a Ca^2+-sensitive fluorophore, washed and aliquoted to a 384-well plate placed in a fluorescence plate reader. Readouts in ΔF/F0 (%) on the y-axis reflect the intracellular concentration of Ca^2+ ([Ca^2+],) in the sperm cells as a function of time (FIG. 1, 2, 4) or dose of zafirlukast (FIG. 3).
After measuring the baseline fluorescence for 80s serially diluted doses of zafirlukast as well as a negative buffer control (FIGS. 1 and 4) were added to the sperm cells. Hereafter the measurement was continued for a few minutes before a second addition of 500 nM progesterone (FIG. 1) or 3 mM NH4Cl (FIG. 4) to activate CatSper. […] CatSper-signals induced by 500 nM progesterone (FIG. 2) in the presence of serially diluted doses of zafirlukast are used for the dose inhibition curve for zafirlukast on progesterone-induced signals through CatSper (FIG. 3).
as §1, with “5, 6, 8)” for “1, 2, 4)”, “aniline derivate” for “zafirlukast”, “7).” for “3).”
After measuring the baseline fluorescence for 80s serially diluted doses of aniline derivative as well as a negative buffer control (FIGS. 5 and 8) were added to the sperm cells. Hereafter the measurement was continued for a few minutes before a second addition of 500 nM progesterone (FIG. 5) or 3 mM NH4Cl (FIG. 8) to activate CatSper. […] CatSper-signals induced by 500 nM progesterone (FIG. 6) in the presence of serially diluted doses of the aniline derivative are used for the dose inhibition curve for aniline derivative on progesterone-induced signals through CatSper (FIG. 7).
(§2) To assess the effect of zafirlukast on CatSper in human sperm cells, we first isolated motile sperm cells from freshly ejaculated semen samples of healthy human donors through the swim-up method. Then we loaded these sperm cells with a Ca^2+-fluorophore, i.e. a molecule that emits light more intensively when [Ca^2+], increases. Hereafter we aliquoted these fluorophore-loaded sperm cells to the wells of micro-well plates and inserted the plate into a fluorescence plate reader, that measures the light emitted from the Ca^2+-fluorophore. After measuring the baseline fluorescence for 80s we added to the wells serially diluted doses of zafirlukast (FIGS. 1 and 4). Hereafter we continued the measurement for a few minutes before a second addition of 500 nM progesterone (FIG. 1) or 3 mM NH4Cl (FIG. 4) to activate CatSper.
as §2, with “the aniline derivative” for “zafirlukast”, “[Ca^2*],” for “[Ca^2+],”, “5” for “1”, “8).” for “4).”, “5)” for “1)”, “8)” for “4)”

SMILES: COc1cc(C(=O)NS(=O)(=O)c2ccccc2C)ccc1Cc1cn(C)c2ccc(N)cc12 [aniline derivative]
- Inhibition of activation of human CatSper by progesterone: inhibits the activation of human CatSper
- Inhibition of activation of human CatSper by intracellular alkalization via NH4Cl: inhibits the activation of human CatSper
- pIC50: ~6.05

SMILES: COc1cc(C(=O)NS(=O)(=O)c2ccccc2C)ccc1Cc1cn(C)c2ccc(NC(=O)OC3CCCC3)cc12 [zafirlukast]
- Inhibition of activation of human CatSper by progesterone: inhibits the activation of human CatSper
- Inhibition of activation of human CatSper by intracellular alkalization via NH4Cl: inhibits the activation of human CatSper
- pIC50: ~5.66
